Results on 110 molecules are retold here after a melting point compilation (Tetko et al.).

For orientation: melting point means the temperature, or range, at which the solid turns liquid.

On to `O=C(O)/C=C/c1cccc(F)c1`, for which the melting point came out at 167 °C. The value for `CCCCCCCCc1ccc(/N=N/c2ccc(OC(=O)CC)cc2)cc1` was 60 to 62 °C. Turning to `O=C(C=Cc1ccc(O)cc1)c1ccccc1`, the melting point worked out at 184 °C. The same measure for `CCc1cccc(C)c1N(C(=O)CCl)C(C)COC` (stereo not given): -40 °C. The value for `OCc1ccc2[nH]cnc2c1` was 129 to 131 °C; that for `CC(C)(C)NC[C@H](O)CO` was 85 to 89 °C; that for `Cc1ccccc1NC(=N)NC(=N)N` was 144 °C. The value for `S=P(N1CC1)(N1CC1)N1CC1` was 54 to 57 °C. The molecule `COC(=O)[C@H](CSSC[C@@H](C(=O)OC)N1C(=O)[C@@H]2[C@H](C1=O)[C@@H]1C=C[C@H]2C1)N1C(=O)[C@@H]2[C@H](C1=O)[C@@H]1C=C[C@H]2C1` gave a melting point of 100 °C. The value for `CCCCCCOc1ccccc1C(N)=O` was 71 °C; that for `CN(N=O)c1ccccc1` was 14.7 °C; that for `CCCCCCCc1ccccc1` was -48 °C. The same measure for `Nc1ccc(N2CCOCC2)c(Cl)c1`: 102 to 104 °C. The same measure for `O=c1[nH]c2ccc(Cl)cc2o1`: 192 to 193 °C; for `CCOC(=O)C(=NNc1ccccc1[N+](=O)[O-])C(=O)OCC`: 196 °C. `CC12CCC(=O)N1C(c1ccccc1)CO2` (stereo not given): the melting point amounted to 125 °C. The value for `CC(/C=C(\C)c1ccc(C)cc1)=NNc1ccc([N+](=O)[O-])cc1[N+](=O)[O-]` was 182 to 184 °C; that for `C=C(C(=O)O)c1ccccc1` was 106 °C. In the case of `Cc1cccc(C(=O)CC#N)c1`, the melting point fell in the range of 73 to 75 °C.

`CCCCCOC(=O)CCCC` gave a melting point of -78.8 °C.

With `N#Cc1ccnc(N2CCCC2)c1`, the melting point lay within 79 to 80 °C. The same measure for `Cc1nc(C)c(C)nc1C`: 85 °C. The value for `O=C1CC2(CCCC2)CC(=O)O1` was 64 to 66 °C; that for `FC(F)(F)C(F)(F)C(Cl)Cl` was -94 °C.

With `Sc1nc2cc(Cl)ccc2[nH]1`, the melting point is 300 °C. The same measure for `O=C(O)c1ccc(N2CCOCC2)s1`: 135 to 137 °C. The value for `O=C1Nc2ccc(Cl)cc2C1=O` was 242 to 250 °C; that for `O=C(CBr)c1cc(-c2ccc(Cl)c(Cl)c2)no1` was 114 to 118 °C. The value for `COC(=O)c1cccc(CBr)c1` was 44 °C. Take `N#C/C(=N\Nc1cccc(C(F)(F)F)c1)c1nc2ccccc2[nH]1`: the melting point came out at 270 °C.

Molecule `CC(=O)Oc1c(-c2ccccn2)[nH]c2ccccc12` yielded a melting point of 130 °C. The same measure for `Cc1c[nH]c(C)n1`: 92 °C. The same measure for `Nc1cc2ccccc2cn1`: 154 to 156 °C; for `O=C1COc2cc(O)ccc21`: 241 °C. Molecule `Nc1ccc(C=Cc2ccccc2)c(N)c1` showed a melting point of 116 °C. The same measure for `Cc1ccc(S(=O)(=O)N2CCCN(S(=O)(=O)c3ccc(C)cc3)CC(=O)NCCCNC(=O)C2)cc1`: 159 °C; for `Cc1csc2c(Cl)ncnc12`: 124 to 125 °C; for `N#CC1C(=N)Oc2c(c(=O)oc3ccccc23)C1c1ccc(Br)cc1` (stereo not given): 254 °C.

In the case of `O=C(O)c1cnon1`, the melting point is 102 to 104 °C. The molecule `C=Cc1ccco1` gave a melting point of -94 °C. The same measure for `COc1ccc2c(c1)CC1(CCC(c3ccc(C(C)(C)C)cc3)CC1)C2` (stereo not given): 84 to 85 °C. Regarding `FC(F)(F)c1nn(CN2CCN(Cn3nc(C(F)(F)F)n(N=Cc4ccc5c(c4)OCO5)c3=S)CC2)c(=S)n1N=Cc1ccc2c(c1)OCO2`, the melting point turned out to be 156 °C.

As for `CSc1ncccc1C(=O)Cl`, the melting point is 94 °C.

`NCC(c1ccccc1)c1ccccc1`: the melting point lay within 43 to 49 °C. For `O=C(C(=S)Nc1ccc(I)cc1)c1ccccc1`, the melting point turned out to be 139 °C.

In the case of `CCCCCCCCCCCCN1CCCCCC1=O`, the melting point is -7 °C. The same measure for `O=Cc1ccccc1OCc1ccccc1Cl`: 84 to 86 °C; for `OC(O)C(Br)(Br)Br`: 53.5 °C; for `CCOC(=O)C1=C(CBr)NC(C)=C(C(=O)OC)C1c1cccc([N+](=O)[O-])c1` (stereo not given): 106 °C. The value for `CC(=O)c1ccc(S(=O)(=O)Cl)cc1` was 84 °C; that for `COCCOC1=C(N2CC2)C(=O)C(OCCOC)=C(N2CC2)C1=O` was 80 °C; that for `CCCCOc1ccc(-c2nnc3n2NC(c2ccco2)S3)cc1` (stereo not given) was 127 °C. `Cc1cc(C)c(S(=O)(=O)NN)c(C)c1` registered a melting point of 114 °C. The same measure for `N[C@@H](CCC(=O)N[C@@H](CCC(=O)O)C(=O)O)C(=O)O`: 179 to 182 °C; for `O=C(Oc1cccc(N=[N+]([O-])c2cccc(OC(=O)c3ccccc3)c2)c1)c1ccccc1`: 175 °C. In the case of `CCOC(=O)c1c(NC(=S)Nc2ccc(Br)cc2)sc2c1CCCC2`, the melting point was 204 to 205 °C.

`COc1cc2c(cc1OC)C(c1ccc(C)o1)SC(c1ccc(C)o1)=N2` (stereo not given): the melting point amounted to 148 °C. The same measure for `N#Cc1c(N2CCCC2)nc(N)c2c(-c3ccccc3)cc(-c3ccccc3)nc12`: 236 °C; for `CC1=C(C)C(=O)C=CC1=O`: 55 °C. Take `NC(=S)NN=C1C2CCCC1C1(O)CCCCC1C2` (stereo not given): the melting point amounted to 184 °C. The same measure for `O=[N+]([O-])c1ccc2c(c1)OCCOCCOCCOCCOCCO2`: 85 to 88 °C; for `CC(C)(C)OC(=O)NCC1CCN(Cc2ccccc2)CC1`: 102 to 103 °C; for `FC(F)(Br)C(F)(F)Br`: -110 °C. The same measure for `CCOC(=O)C=Cc1ccc(OC)c(OC)c1Cl`: 68 to 69 °C; for `C1COCCOCCNCCOCCOCCN1`: 111 to 115 °C; for `CC(=O)Oc1ccccc1C(=O)OC(=O)c1ccccc1OC(C)=O`: 83 °C. The value for `CCNc1ccc2ccccc2c1N=Nc1ccc(N=Nc2ccccc2)cc1` was 130 °C.

In turn, `N#Cc1cc([N+](=O)[O-])cc([N+](=O)[O-])c1` had a melting point of 129 °C.

`CC(=O)N(c1ccccc1)c1nc(CCl)cs1` displayed a melting point of 113 to 115 °C. The value for `CS(=O)(=O)n1ccnc1` was 86 to 88 °C; that for `O=C(O)C(=Cc1ccc(Cl)cc1)C(=Cc1ccc(Cl)cc1)C(=O)O` was 232 °C; that for `O=CC(=O)O` was 98 °C. The same measure for `CC1CCCCN1CCCOC(=O)c1ccc(Cl)c(Cl)c1` (stereo not given): 25 °C. The same measure for `CC1(C)OC2CC3C4CC(F)C5=CC(=O)C=CC5(C)C4C(O)CC3(C)C2(C(=O)CO)O1` (stereo not given): 245 °C; for `CSc1nc(N)nc(-c2cc(Cl)cc(Cl)c2)n1`: 214 to 216 °C; for `O=C1CCC2C1C1CCC(=O)C21` (stereo not given): 266 °C. Consider `O=C(OCc1ccccc1)C(=O)OCc1ccccc1`, for which the melting point was 80 to 82 °C.

As to `O=C(O)Cc1ccc(F)cc1Cl`, the melting point came out at 104 °C. The same measure for `COC(=O)Cc1c(Cl)[nH]c(C)c1C(=O)OC`: 86 °C; for `NNC(=O)C(N)=O`: 216 to 218 °C. The value for `CC1=NN(c2ccccc2)C(=O)/C1=C\c1cccc(/C=C2\C(=O)N(c3ccccc3)N=C2C)c1` was 220 °C; that for `COc1ccc(C2C(C#N)=C(N)Oc3[nH]nc(C(F)(F)F)c32)cc1` (stereo not given) was 204 °C. `O=C(C=CC(=O)Oc1ccccc1)Oc1ccccc1` yielded a melting point of 73 °C.

`Cc1nc2ccccn2c1C(=O)O`: the melting point fell in the range of 140 to 142 °C. As to `C/C(=N\NC(=O)c1ccccn1)c1c(O)c2ccccc2n(-c2ccccc2)c1=O`, the melting point lay in the range of 288 to 290 °C. In the case of `CCCC(=O)Cl`, the melting point is -89 °C. The same measure for `CCOC(=O)C=Cc1ccc([N+](=O)[O-])cc1`: 139 °C. The value for `Cc1ccc2c(c1)CCC(C)C2` (stereo not given) was 20 °C; that for `BrCCc1ccc(CCBr)cc1` was 73 °C; that for `Cc1ccc(Oc2ccc([N+](=O)[O-])cc2)cc1` was 69 °C. The value for `Nc1ncnc2c1ncn2CC(O)CO` (stereo not given) was 202 to 203 °C; that for `O=C(Cl)c1ccc2sccc2c1` was 86 to 87 °C. In the case of `O=C(O)CN=C(S)C(=S)NCC(=O)O`, the melting point came out at 220 °C. The same measure for `N#C/C(=C\c1ccc(Cl)cc1Cl)c1nc(-c2cccc3ccccc23)cs1`: 132 °C; for `N#Cc1nccc2ccccc12`: 89 °C; for `NCc1ccccn1`: -20 °C. `CC(=O)OC1(C(C)=O)CCC2C3C=C(C)C4=CC(=O)CCC4(C)C3CCC21C` (stereo not given) showed a melting point of 214 °C. The same measure for `CN1CCN(Cc2ccc(I)cc2)CC1`: 105 to 106 °C. The same measure for `c1ccc2c(c1)nnc1ccccc12`: 158 °C; for `NNC(=O)c1ccsc1`: 126 to 128 °C; for `N#CC(=NO)c1ccccc1`: 129 °C. The value for `CCC(O)C1CCCCN1` (stereo not given) was 121 °C; that for `Nc1cccc(Oc2ccc(S(=O)(=O)c3ccc(Oc4cccc(N)c4)cc3)cc2)c1` was 132 to 135 °C; that for `Cc1nonc1C` was -7 °C. `COC(=O)c1sc(N2CCCCC2)c(C#N)c1N` displayed a melting point of 184 to 185 °C. Turning to `c1ccc(OCc2ccc(CCCN3CCOCC3)cc2)cc1`, the melting point came out at 52.5 °C. The same measure for `COc1ccc(C2Nn3c(nnc3-c3ccccc3OC)S2)cc1` (stereo not given): 203 to 204 °C; for `Cc1ccc2c(ccc3ccccc32)c1`: 58 °C.

The molecule `COC(=O)Cn1nnc(N2CCOCC2)n1` displayed a melting point of 100 to 103 °C. The same measure for `CCC(C)(S(=O)(=O)CC)S(=O)(=O)CC`: 76 °C.
